How the values were obtained:
cGMP = assay: Parotid saliva cGMP, 96 plate spectrophotometric assay; assay type: in vivo, human; details: for saliva cGMP over initial values: improved patients; for change of saliva cGMP: unimproved patients
Method: Parotid saliva was collected from each patient by application of a Lashley cup over Stensen's duct with lingual stimulation by placement of concentrated lemon juice. Saliva was collected in plastic tubes and stored at −20° C. until assayed. cAMP and cGMP were measured in saliva by a sensitive 96 plate spectrophotometric assay (R&D Systems, Minneapolis, MN).
All patients were placed in a fixed design open label clinical trial with treatment with oral theophylline. Treatment consisted of fixed treatment periods of two-eight months with sequential doses of the drug at 200 mg, 400 mg and 600 mg. At termination of each of these intervals, patients returned to study site for reevaluation. At the end of each interval subjective responses to treatment were measured with a modification of the 0-100 scale previously used (vs). Subjective responses to treatment were graded on a sliding scale from −100-0-+100 with patients recording improvement (+0-+100), no improvement (0) or worsening (0—-100) of their overall smell function. If overall smell function improved ≥5% they were considered to improve clinically (1). If smell function improved <5% they were considered not to improve (1). At the end of each interval subjective measurements of smell function, measurements of DT, RT, ME and H and measurements of parotid saliva for levels of cAMP and cGMP were obtained. In addition, blood plasma was obtained by venipuncture, placed in ice into zinc free tubes which contained 100 mg zinc free heparin, centrifuged at 3000 rpm for 10-20 min, the plasma transferred to plastic PCR tubes and stored at −20° C. until assayed. Theophylline was assayed by a fluorescence polarization assay (Abbott, Chicago, IL), as previously described.
Data for the cyclic nucleotides from these 31 patients was not analyzed until the entire study of the 312 patients in Example 1 was assembled and analyzed in its entirety. After completion of these analyses, all data for parotid saliva cAMP and cGMP from all patients in whom salivary cAMP and cGMP were obtained were assembled. Levels of salivary cyclic nucleotides varied widely. Initially, without external criteria, there was no way to understand these disparate data. […] In a similar manner, measurements of each patient's plasma theophylline level at each dosage of theophylline (at 200 mg, 400 mg, 600 mg of theophylline) were catagorized. The two patient groups were also analyzed post hoc with respect to type of smell loss and etiology of smell loss.

total PDE activity = details: human lung extracts; therapeutic concentrations; cited from earlier work
patients with hyposmia [1] = assay: Pilot study of intranasal theophylline, subjective taste and smell response; assay type: in vivo, human
From the text: Ten patients with hyposmia were selected from among 400 patients with hyposmia to participate in a pilot study to determine safety and efficacy of intranasal theophylline for the treatment of hyposmia. […] Selection for inclusion in the intranasal study was based upon several criteria. 1) non-response to oral theophylline; 2) severe side effects with oral theophylline that prevented reaching a dose of sufficient strength to restore smell function; and/or 3) preference for intranasal medication over oral medication.
Subjective responses to treatment were obtained independent of any interaction with the clinical staff by using a scale of 0-100 to measure response of taste function and smell function to treatment with 0 indicating no response, 100 indicating return to normal function and intermediate numbers indicating an intermediate response.
The patients inserted a plastic syringe containing 0.4 ml of fluid (20 μg theophylline) into each naris once a day. […] The drug dose was delivered through a plastic nipple which fitted snugly onto the filled syringe which was attached directly to the nipple. One nipple was supplied for each set of two syringes in each application kit. The patient fitted the nipple on one syringe, placed the nipple securely into the lower naris and injected the contents of the syringe directly into the lower vault of one naris accompanied by a modest inhalation. […]

patients with hyposmia [2] = assay: Subjective overall smell function response to oral theophylline; assay type: in vivo, human
Method: Independently, patients were also required to grade their ability to smell daily on a scale from 0-100, with 0 reflecting no overall smell function over a 24 hour period, 100 reflecting normal overall smell function over this period and numbers between 0-100 reflecting their estimation of their overall ability to smell odors over this period.
After determination of hyposmia, patients were treated in an open label, fixed design, controlled open trial. Patients were given an oral extended release theophylline in divided daily doses taken in the middle of breakfast and lunch. All patients were initially given 200 mg of theophylline; changes in this dose were made based upon subjective responses to therapy. If at a subsequent return visit, patients reported ≥5% subjective improvement in overall smell function, they continued on this same dose of theophylline and were reevaluated after four to six months of continued treatment. Results from any subsequent return from these improved patients were not included in any subsequent data report. All subsequent comparisons between treated and untreated patients were made only between those patients continuing in the study compared to their own measurements obtained in the untreated state. If patients reported <5% subjective improvement, their theophylline dose was increased by 200 mg daily and they were scheduled for retesting at the study site after two to four months at this new dosage. For patients that reported <5% improvement, this sequence continued until patients reached 800 mg of theophylline, at which time the study was considered completed.
Patients returned for reevaluation after two to four months of treatment. Measurements of blood serum theophylline were measured by a fluorescence polarization assay (Abbott, Chicago, IL). At this time, subjective changes in smell function were measured independently (compared to patient's memory of previous normal smell function monitored by use of the patients' daily measurements) using the scale from −100-0-+100 previously described (vs). After independently recording their subjective responses, smell function was measured for all four odors with DT, RT, ME and H determined without recourse to prior measurements.
Subjective overall changes in smell acuity were reported by telephone and by FAX or email at two-four month intervals after treatment was initiated using the standardized form in which they measured daily changes in smell acuity using the −100-0-+100 scale as noted above (vs). Using the same criteria noted above, if at their initial two-four month call-in they reported improvement in smell acuity of ≥5%, they continued at 200 mg and returned to the study site at four-six months on this treatment dose. If they reported improvement in smell acuity of <5% their dose of theophylline was increased to 400 mg for an additional two-four months and they then called the study site at the end of this period.

patients with hyposmia [3] = assay: Side effects of intranasal theophylline; assay type: in vivo, human; details: intranasal 20 μg per naris once a day
Method: The patients inserted a plastic syringe containing 0.4 ml of fluid (20 μg theophylline) into each naris once a day. […] The drug dose was delivered through a plastic nipple which fitted snugly onto the filled syringe which was attached directly to the nipple. One nipple was supplied for each set of two syringes in each application kit. The patient fitted the nipple on one syringe, placed the nipple securely into the lower naris and injected the contents of the syringe directly into the lower vault of one naris accompanied by a modest inhalation. This technique was then used for the second syringe used for the other naris. The patients were instructed to administer the drug either seated or standing with their head in an erect, vertical position.

SMILES: Cn1c(=O)c2[nH]cnc2n(C)c1=O [theophylline]
- saliva cGMP over initial values (cGMP; oral 400 mg): 275%
- change of saliva cGMP (cGMP; oral 400 mg): little change
- saliva cGMP over initial values (cGMP; oral 600 mg): 338%
- change of saliva cGMP (cGMP; oral 600 mg): no increase
- inhibition of total PDE activity (total PDE activity): 5 to 10%
- subjective improvement in both taste and smell function over prior results with oral theophylline (patients with hyposmia [1]; intranasal 20 μg per naris once a day, 4 weeks, six of eight patients): 10-20%
- further loss of smell while in the study (patients with hyposmia [1]; intranasal 20 μg per naris, after stopping oral theophylline): No patient exhibited a further of loss of smell
- patients improved ≥5% (subjective) (patients with hyposmia [2]; oral 200 mg daily, 34 of 199 returning patients): 17.1%
- improved patients who considered smell function returned to normal (patients with hyposmia [2]; oral 200 mg daily, nine of the 34 improved): 26.5%
- patients reporting return to normal (patients with hyposmia [2]; oral 200 mg, one of the improved non-returning patients): 14.3%
- patients reporting >5% improvement (patients with hyposmia [2]; oral 200 mg, seven of the 15 non-returning patients): 46.7%
- patients improved ≥5% (subjective) (patients with hyposmia [2]; oral 400 mg daily, 35 of 120 patients): 29.2%
- improved patients who considered smell function returned to normal (patients with hyposmia [2]; oral 400 mg daily, three of the 35 improved): 8.6%
- patients who considered smell function returned to normal (patients with hyposmia [2]; oral 600 mg daily, 17 of 160 patients): 10.6%
- patients improved ≥5% (subjective) (patients with hyposmia [2]; oral 600 mg daily, 66 of 160 patients): 41.2%
- patients improved ≥5% (subjective) (patients with hyposmia [2]; oral 800 mg daily, 15 of 28 patients): 53.6%
- patients who considered smell function returned to normal (patients with hyposmia [2]; oral 800 mg daily, three patients): 33%
- improved patients reporting return to normal (patients with hyposmia [2]; oral 200-600 mg, Type III hyposmia, 3 of 5): 60%
- improved patients reporting return to normal (patients with hyposmia [2]; oral 200-800 mg, Type I hyposmia, 5 of 32): 15.6%
- improved patients reporting return to normal (patients with hyposmia [2]; oral 200-800 mg, Type II hyposmia, 26 of 129): 20.2%
- time course of subjective response (patients with hyposmia [2]; oral theophylline): little or no improvement before four-six weeks of treatment
- responsive patients who considered smell function returned to normal (patients with hyposmia [2]; whole study, 34 of 157): 21.7%
- side effects (patients with hyposmia [3]): no side effects

From US12329753B2, “Phosphodiesterase inhibitor treatment” (Cyrano Therapeutics, Inc., priority 2008, dated 2025)
